# Data published in patent US9458104B2 (priority 2012, dated 2016).
# Columns and labels:
# [1] = target: T1, RORγ ligand binding domain (LBD) (Homo sapiens, UniProt P51449); experiment: TR-FRET Activity Assay (ligand sensing assay, RORγ-LBD / coactivator peptide interaction); type: biochemical
# T1 construct: made in house; host or cells: E. coli BL-21 (BL3), vector pDEST15
# T1 sequence (P51449 269-508 limits assumed): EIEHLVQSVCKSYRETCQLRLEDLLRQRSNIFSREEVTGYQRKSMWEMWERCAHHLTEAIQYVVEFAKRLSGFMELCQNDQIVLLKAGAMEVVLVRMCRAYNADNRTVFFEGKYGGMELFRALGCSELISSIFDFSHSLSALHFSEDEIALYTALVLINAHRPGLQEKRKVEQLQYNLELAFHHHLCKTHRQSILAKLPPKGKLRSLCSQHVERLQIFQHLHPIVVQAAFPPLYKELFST
# Source text: This method measures the ability of putative ligands to modulate the interaction between the purified bacterial expressed RORγ ligand binding domain (LBD) and synthetic N-terminally biotinylated peptides which are derived from nuclear receptor coactivator proteins such as but not limited to SRC1 (NcoA1), SRC2 (NcoA2, TIF2), SRC3 (NcoA3), PGC1α, PGC1β, CBP, GRIP1, TRAP220, RIP140.
# The ligand-binding domain (LBD) of RORγ was expressed as fusion protein with GST in […] cells using the vector pDEST15. Cells were lysed by lysozyme-treatment and sonication, and the fusion proteins purified over glutathione sepharose (Pharmacia) according to the manufacturers instructions. For screening of compounds for their influence on the RORγ-peptide interaction, the LANCE technology (Perkin Elmer) was applied. This method relies on the binding dependent energy transfer from a donor to an acceptor fluorophor attached to the binding partner of interest. For ease of handling and reduction of background from compound fluorescence LANCE technology makes use of generic fluorophore labels and time resolved detection assays were done in a final volume of 25 μL in a 384 well plate, in a Tris-based buffer system (20 mM Tris-HCl pH6.8; 60 mM KCl, 1 mM DTT; 5 mM MgCl2; 35 ng/μL BSA), containing 20-60 ng/well recombinantly expressed RORγ-LBD fused to GST, 200-600 nM N-terminally biotinylated peptide, 200 ng/well Streptavidin-xIAPC conjugate (Prozyme) and 6-10 ng/well Eu W1024-antiGST (Perkin Elmer). DMSO content of the samples was kept at 1%.
# After generation of the Tris-based buffer system, the potentially RORγ modulating ligands were diluted. […] The LANCE signal was detected by a Perkin Elmer EnVision™ Multilabel Counter. The results were visualized by plotting the ratio between the emitted light at 665 nm and 615 nm. […] Ligands that promote the complex formation induce a concentration-dependent increase in time-resolved fluorescent signal.
# To assess the antagonistic potential of the compounds, IC50 values were determined using a Ligand Sensing Assay based on Time-resolved Fluorescence Energy Transfer (TR-FRET) as described above. The normalised TR-FRET assay values, using the following equation: 1000*665 nm measurement value/615 nm measurement value, were transferred to the program GraphPad Prism to generate graphs and dose response curves using the following equation: […]
# This is identical to the “four parameter logistic equation”. The IC50 values are calculated using this equation. […] Is is understood that the data illustrated below may have reasonable variation depending on the specific conditions and procedures used by the person conducting the test.
# [2] = target: T2, RORγ (UniProt P51449); type: cell-based; details: 293T cells, 16 h; for pIC50 (FF): firefly (FF) luciferase; for pIC50 (REN): renilla normalised (RENnorm) luciferase
# T2 construct: hRORg-LBD|aa259-518|NP_005051.2; hRORgt|aa1-497|NP_001001523 (RORg, t isoform, 497aa); mRORg-LBD|aa264-516|NP_035411
# T2 sequence (P51449 1-518): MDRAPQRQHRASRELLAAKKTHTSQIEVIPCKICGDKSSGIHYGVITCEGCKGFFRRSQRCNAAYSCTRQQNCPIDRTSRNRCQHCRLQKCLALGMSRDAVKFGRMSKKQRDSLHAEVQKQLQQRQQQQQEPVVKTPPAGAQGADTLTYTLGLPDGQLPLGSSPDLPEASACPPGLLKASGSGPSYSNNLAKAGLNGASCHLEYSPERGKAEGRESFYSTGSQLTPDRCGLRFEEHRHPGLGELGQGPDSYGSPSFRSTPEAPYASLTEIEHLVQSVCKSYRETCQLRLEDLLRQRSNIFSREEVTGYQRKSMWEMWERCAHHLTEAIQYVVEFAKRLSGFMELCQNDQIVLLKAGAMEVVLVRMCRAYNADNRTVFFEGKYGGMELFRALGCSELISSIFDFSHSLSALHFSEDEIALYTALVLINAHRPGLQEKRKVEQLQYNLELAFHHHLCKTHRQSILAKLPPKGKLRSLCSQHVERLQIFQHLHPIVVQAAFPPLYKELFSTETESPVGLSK
# Experimental: Determination of a ligand mediated Gal4 promoter driven transactivation to quantify ligand binding to RORγ was performed as follows: DNA encoding three different RORγ. protein fragments was cloned into vector pCMV-BD (Stratagene). Expression was under control of a CMV promoter and as fusion to the DNA-binding domain of the yeast protein GAL4. Other vectors used were pFR-Luc (Stratagene) as regulated reporter plasmid. pFR-Luc contains a synthetic promoter with five tandem repeats of the yeast GAL4 binding sites that control expression of the Photinus pyralis (American firefly) luciferase gene. In order to improve experimental accuracy the plasmid pRL-CMV was cotransfected. pRL-CMV contains the constitutive CMV promoter, controlling the expression of the Renilla reniformis luciferase.
# All Gal4 reporter gene assays were done in 293T cells (DSMZ (German Collection of Microorganisms and Cell Cultures), Braunschweig, Germany, ACC635) grown in Minimum Essential Medium (MEM) with Phenol Red. The medium is supplemented with 10% fetal bovine serum, 0.1 mM nonessential amino acids, 1 mM sodium pyruvate, 1% Glutamax and 100 units Penicilin/[…] per mL at 37° C. in 5% CO2.
# For the assay, […] were plated per well in 96 well plates in 100 μL per well, incubated over night at 37° C. in 5% CO2. The following day, medium was discarded and the cells were transiently transfected using 20 μL per well of a OptiMEM—PEI-based transfection-reagent (Sigma-Aldrich, 408727) including the three plasmids described above. About 4 h after addition of the transfection solution, fresh Minimal Essential Medium (MEM, same composition as used for plating cells, but without serum) was added. Then compound stocks, prediluted in MEM (same composition as used for plating cells) were added (final vehicle concentration not exceeding 0.1%).
# All experiments were done at least in triplicates.
# It is understood that the data illustrated below may have reasonable variation depending on the specific conditions and procedures used by the person conducting the test.
SMILES,IC50 [1],pIC50 (FF) [2],pIC50 (REN) [2]
Cn1c(C(=O)N[C@H]2CC[C@H](C(=O)O)CC2)cc(-c2cc(C(C)(C)C)cc(C3(C)CC3)c2)c1CC1CCCCC1 [8/11],1260 nM,7.3,7.4
Cn1c(C(=O)NC23CCC(C(=O)O)(CC2)C3)cc(-c2cc(C(C)(C)C)cc(C3(C)CC3)c2)c1CC1CCCCC1 [8/12],1000 nM,7.7,7.8
Cn1c(C(=O)NCC(C)(C)C(=O)O)cc(-c2cc(C(C)(C)C)cc(C3(C)CC3)c2)c1CC1CCCCC1 [8/13],2510 nM,7.4,7.6
Cn1c(C(=O)NC23CCC(C(=O)O)(CC2)CC3)cc(-c2cc(C(C)(C)C)cc(C3(C)CC3)c2)c1CC1CCCCC1 [8/14],2000 nM,7.4,7.6
Cn1c(C(=O)N2CC(C(C)(C)C(=O)O)C2)cc(-c2cc(C(C)(C)C)cc(C3(C)CC3)c2)c1CC1CCCCC1 [8/15],2000 nM,7.2,7.4
Cn1c(C(=O)N2CCC(C)(C(=O)O)CC2)cc(-c2cc(C(C)(C)C)cc(C3(C)CC3)c2)c1CC1CCCCC1 [8/16],1580 nM,7.5,7.6
C[C@H](NC(=O)c1cc(-c2cc(C(=O)N[C@H]3C[C@H](C(=O)O)C3)n(C)c2CC2CCCCC2)cc(C2(C)CC2)c1)C(F)(F)F [8/17],1000 nM,7.7,7.9
Cn1c(C(=O)N[C@H]2C[C@H](C(=O)O)C2)cc(-c2cc(C(C)(C)C)nc(C3(C)CC3)n2)c1CC1CCCCC1 [8/18],794 nM,6.7,6.7
Cn1c(C(=O)N[C@H]2C[C@H](C(=O)O)C2)cc(-c2cc(C(C)(C)C)nc(C(C)(C)C)n2)c1CC1CCCCC1 [8/19],794 nM,6.8,6.8
Cn1c(C(=O)NC2CCOCC2)cc(CC2CCCCC2)c1-c1cc(C(C)(C)C)cc(C2(C)CC2)c1 [19/2],501 nM,6.9,6.9
CC(C)(C)c1cc(-c2cc(C(=O)NC3CCOCC3)nn2CC2CCCCC2)cc(C2(C)CC2)c1 [100/1],79.4 nM,7.3,7.4
CC(C)(C)NS(=O)(=O)c1ccc(-c2cc(C(=O)NC3CCOCC3)nn2CC2CCCCC2)cc1C(C)(C)C [100/2],794 nM,7.3,7.4
CC(C)(C)NS(=O)(=O)c1ccc(-c2cc(C(=O)N[C@H]3C[C@H](C(=O)O)C3)nn2CC2CCCCC2)cc1C(C)(C)C [100/3],794 nM,7.0,7.1
CC(C)(C)NS(=O)(=O)c1ccc(-c2cc(C(=O)NCCC(C)(C)C(=O)O)nn2CC2CCCCC2)cc1C(C)(C)C [100/4],2000 nM,6.6,6.7
CC(C)(C)NS(=O)(=O)c1ccc(-c2cc(C(=O)NC3CCOCC3)nn2CC2CCCCC2)cc1C(F)(F)F [100/5],501 nM,7.1,7.2
CC(C)(C)NS(=O)(=O)c1ccc(-c2cc(C(=O)N[C@H]3C[C@H](C(=O)O)C3)nn2CC2CCCCC2)cc1C(F)(F)F [100/6],316 nM,6.3,6.3
CC(C)(C)NS(=O)(=O)c1ccc(-c2cc(C(=O)NCCC(C)(C)C(=O)O)nn2CC2CCCCC2)cc1C(F)(F)F [100/7],1260 nM,6.2,6.3
CC(C)NC(=O)c1cc(CC2CCCCC2)n(-c2cc(C(C)(C)C)cc(C(C)(C)C)c2)n1 [102/2],631 nM,< 4.7,< 4.7
Cc1cc(-n2nc(C(=O)NC3CC3)cc2CC2CCCCC2)cc(C(C)(C)C)c1 [102/3],3160 nM,5.7,6.1
CC(C)(C)c1cc(-n2nc(C(=O)NC3CCOCC3)c(Cl)c2CC2CCCCC2)cc(C(C)(C)C)c1 [103/2],316 nM,6.3,6.4
CC(C)(O)CNC(=O)c1nn(-c2cc(C(C)(C)C)cc(C(C)(C)C)c2)c(CC2CCCCC2)c1Cl [103/5],316 nM,6.2,6.3
CC(C)(C)c1cc(-n2nc(C(=O)NCc3ccno3)c(Cl)c2CC2CCCCC2)cc(C(C)(C)C)c1 [103/6],631 nM,6.1,6.2
CC(C)(C)c1cc(-n2nc(C(=O)NCc3cnco3)c(Cl)c2CC2CCCCC2)cc(C(C)(C)C)c1 [103/7],251 nM,6.3,6.3
CC(C)(C)c1cc(-n2nc(C(=O)NCc3ccn[nH]3)c(Cl)c2CC2CCCCC2)cc(C(C)(C)C)c1 [103/8],794 nM,< 4.7,< 4.7
COC(C)(C)c1cc(-n2nc(C(=O)NC3COC3)c(Cl)c2CC2CCCCC2)cc(C(C)(C)C)c1 [104/4],631 nM,6.6,6.6
CC(C)(C)NS(=O)(=O)c1ccc(-c2cc(C(=O)NC34CCC(C(=O)O)(CC3)CC4)nn2CC2CCCCC2)c(Cl)c1Cl [112/2],794 nM,6.9,7.0
Cc1c(C(=O)NC2CCOCC2)cc(-c2ccc(S(=O)(=O)NC(C)(C)C)c(C(F)(F)F)c2)n1CC(C)(C)C [302/2],5010 nM,6.1,6.1
Cc1c(C(=O)NC2CCOCC2)cc(-c2ccc(S(=O)(=O)NC(C)(C)C)c(C(F)(F)F)c2)n1CC1COC1 [302/3],15800 nM,6.3,6.2
